Measurements from paper PMC5310922, “A high-throughput phenotypic screen identifies clofazimine as a potential treatment for cryptosporidiosis” (PLoS Neglected Tropical Diseases, 2017).
Read-outs that look alike come from different tables or passages of the source.

Assays:
[1] = HepG2 72 h cytotoxicity (CellTiter-Glo); format: cell-based, human; settings: human
Description: (§1) Two mammalian cell lines were used for counter-screening for general cytotoxicity of hit compounds: human embryonic kidney cells (HEK293T; ATCC CRL-3216) and human hepatocellular carcinoma cells (HepG2; ATCC HB-8065). […] Compounds were pre-spotted into tissue culture-treated white solid-bottomed 1536-well plates (Greiner) in a 1:3 dose-response dilution (top concentration 20 μM). HEK293T and HepG2 cells were diluted to 75×10^3 cells/mL and 150×10^3 cells/mL, respectively, and 5 μL/well were dispensed into assay plates with a MultiFlo FX Multi-Mode Dispenser (Biotek). […] At the completion of the assay, CellTiter-Glo (Promega) was prepared at 1:2 (reagent:water) of the manufacturer’s instructions, and 2 μL were dispensed into each well. After a 5 min incubation at room temperature, luminescence readings were measured with an EnVision Multilabel Plate Reader (Perkin Elmer). […] were uploaded into Genedata Screener (v13.0-Standard), and data normalized to DMSO- and puromycin-treated wells. A four-parameter non-linear regression curve fit was applied to dose-response data using Genedata to determine the half maximal cytotoxic concentration (CC50) of each compound.

Cryptosporidium parvum = test: C. parvum proliferation in HCT-8 cells, 48 h high-content imaging assay; format: cell-based, Cryptosporidium parvum (Iowa strain); settings: for EC50: 48 h; for EC99 against C. parvum: concentration used in washout assay
[2] = system: Cryptosporidium hominis (TU502); test: C. hominis proliferation in HCT-8 cells, 48 h high-content imaging assay; format: cell-based; settings: read-out: C. hominis 48H Assay EC50 [µM] (SD; n)
Description: Methods for continuous, in vitro cultivation of Cryptosporidium spp. have not been well established. Instead, in vivo oocyst propagation of C. parvum is performed in calves, a more promiscuous Cryptosporidium species for animal and human infections. For C. hominis, gnotobiotic piglets are the primary means of propagation. The calf is the more accessible model, making C. parvum the more convenient species to screen. However, C. hominis is equally clinically relevant with regards to human cryptosporidiosis. […] High purity powders of the 10 filtered C. parvum Bioactives screen hits and both GHCDL screen hits were tested against C. hominis (TU502) to confirm activity against both species.
(§2) Cells were then plated (5 μL/well) into 1536-well assay plates at a density of 5.5×10^5 cells/mL (2,750 cells/well).
C. parvum oocysts (Iowa strain, isolated from infected calves) were purchased from the Sterling Parasitology Laboratory, University of Arizona, and stored at 4°C for ≤ 3 months in an antibiotic solution (0.01% Tween 20 containing 100 U/mL penicillin and 100 μg/mL gentamicin). C. hominis oocysts (TU502, isolated from gnotobiotic piglets) were purchased from the Tzipori Laboratory, Cummings School of Veterinary Medicine, Tufts University, and stored at 4°C for ≤ 2 weeks in an antibiotic solution (100 U/mL penicillin and 100 μg/mL streptomycin). For infection of assay plates, 24 h after cell seeding, oocysts were excysted and prepared for inoculation as previously described. Briefly, the oocysts were diluted into 1 mL pre-warmed 10 mM HCl and then incubated in a 37°C water bath for 10 min. Oocysts were then pelleted at 3,000×g for 1 min in a microcentrifuge (Thermo), and the supernatant was carefully aspirated. Oocysts were resuspended in 2 mM sodium taurocholate in DPBS++ (with 0.9 mM CaCl2 and 0.5 mM MgCl2) and incubated at room temperature for 20 min. After incubation in bile salts, the oocysts were diluted 1:100 and free sporozoites and intact oocysts were enumerated to determine the percentage of excystation.
Plates were then washed twice with phosphate buffered saline (PBS). […] To prevent non-specific binding, the cells were blocked with SuperBlock™ T20 blocking agent (Thermo) for 1 h at room temperature. Cryptosporidium parasites were stained with 1 μg/mL fluorescein isothiocyanate (FITC)-conjugated Vicia villosa lectin (Vector Laboratories) in 1:10 diluted SuperBlock™ in PBS-T, supplemented with 3 μM 4',6-diamidino-2-phenylindole (DAPI) to visualize host cell nuclei. Staining was for 1 h at room temperature in the dark. Finally, cells were washed twice with PBS-T and the plates were sealed with adhesive foil. The plates were imaged with a CellInsight CX5 High Content Screening Platform (Thermo) with a 10× objective. […] The software identified primary objects (HCT-8 host cells) and spots within allowed distances to the nuclei (Cryptosporidium). Both cytotoxicity against HCT-8 cells (number of nuclei relative to DMSO-treated controls) and Cryptosporidium inhibition (spot counts relative to DMSO-treated controls) were assessed.
Images were processed by the HCS Studio Scan software, and Selected Object Count (HCT-8 cells) and Spot Count (Cryptosporidium) were analyzed in Genedata Screener (v13.0-Standard). Spot Count and Selected Object Count were normalized to neutral controls minus inhibitors (floxuridine for Spot Count, and puromycin for Selected Object Count).

[3] = HCT-8 host cell cytotoxicity, 48 h (nuclei count); settings: human
Description: as §2
(§3) Plates were then washed twice with phosphate buffered saline (PBS). […] To prevent non-specific binding, the cells were blocked with SuperBlock™ T20 blocking agent (Thermo) for 1 h at room temperature. Cryptosporidium parasites were stained with 1 μg/mL fluorescein isothiocyanate (FITC)-conjugated Vicia villosa lectin (Vector Laboratories) in 1:10 diluted SuperBlock™ in PBS-T, supplemented with 3 μM 4',6-diamidino-2-phenylindole (DAPI) to visualize host cell nuclei. Staining was for 1 h at room temperature in the dark. Finally, cells were washed twice with PBS-T and the plates were sealed with adhesive foil. The plates were imaged with a CellInsight CX5 High Content Screening Platform (Thermo) with a 10× objective. […] For 1536-well format assays (primary screening, triplicate reconfirmation, and dose-response reconfirmation, one microscopic field (802,511.39 μm^2) per well, and for the 384-well washout assay, 4 fields per well were captured. The software identified primary objects (HCT-8 host cells) and spots within allowed distances to the nuclei (Cryptosporidium). Both cytotoxicity against HCT-8 cells (number of nuclei relative to DMSO-treated controls) and Cryptosporidium inhibition (spot counts relative to DMSO-treated controls) were assessed.
(§4) Images were processed by the HCS Studio Scan software, and Selected Object Count (HCT-8 cells) and Spot Count (Cryptosporidium) were analyzed in Genedata Screener (v13.0-Standard). Spot Count and Selected Object Count were normalized to neutral controls minus inhibitors (floxuridine for Spot Count, and puromycin for Selected Object Count). For single-point primary assay plates, an additional run-wise median correction was applied to reduce screen artifacts (e.g. uneven dispense), whereas no correction was applied to triplicate reconfirmation and dose-response plates. For primary screening, a compound is considered a hit by a ≥ 70% reduction in Corrected Spot Count. Compounds that caused moderate cytotoxicity were filtered out (i.e., excluding all Corrected Selected Object Counts ≤ -60%). Dose-response curves were fit with Genedata Analyzer using the Smart Fit function.

[4] = HEK293T 72 h cytotoxicity (CellTiter-Glo); format: cell-based, human; settings: human
Description: as §1

HepG2 = HepG2 72 h cytotoxicity (CellTiter-Glo); format: cell-based, human
Description: as §1

HCT-8 (Host cells) = test: in vitro
Description: as §2, §3, §4

HEK293T = HEK293T 72 h cytotoxicity (CellTiter-Glo); format: cell-based, human
Description: as §1

C. parvum [5] = test: Washout assay: 3-h treatments over the asexual life cycle of C. parvum
Description: We examined short, three-hour compound treatments of in vitro cultures, followed by compound washout, that covered the complete asexual life cycle, believed to be 13–15 h post invasion [36]. […] The treatment interval lasted 3 h before washout with fresh medium; infected cells were allowed to grow until 48 h post infection before fixation. […] As CFZ is very lipophilic, we sought to determine whether intracellular accumulation was affecting the strong inhibition across each time point.
Infected cells were treated in six 3-h increments over the course of 15 h (the presumed in vitro asexual lifecycle of C. parvum). HCT-8 cells were seeded (25 μL/well) into clear-bottomed 384-well plates (Greiner) at a density of 6.0×10^5 cells/mL (15,000 cells/well) in assay medium, and allowed to grow 24 h at 37°C with 5% CO2 in a humidified tissue culture incubator, covered with a custom metal lid (The Genomics Institute of the Novartis Research Foundation) to reduce evaporation. After 24 h, and 2 h before infecting with C. parvum oocysts (time -2 hpi), the treatment time course was initiated. […] DMSO was used as a negative control. Cell medium was removed from designated wells and replaced with medium containing either compound or DMSO. […] Plates were then spun at 150×g for 3 min, and kept at 37°C with 5% CO2 in a humidified tissue culture incubator during drug treatment intervals. At the end of each 3 h time point, infected cells were carefully washed three times with fresh, pre-warmed assay medium, and the next set of wells for the subsequent time point were treated. The final time point extended to 18 h, to cover re-invasion of merozoites into new HCT-8 cells. After the final compound treatment was washed off, infected cells were allowed to grow until 48 h post infection.

C. parvum [6] = test: Host cell 3-h pre-treatment, with or without wash, then C. parvum infection; format: cell-based, Cryptosporidium parvum; settings: for EC50: Cryptosporidium parvum, host cells pretreated 3 h, C. parvum, 48 hpi
Description: A set of parallel wells were also treated and not washed prior to infection. 48 hpi, infected cells were imaged as described above, and EC50s for each compound pre- and post-wash were determined.

[7] = HepG2 cells, 72 h, value (SD; n), read-out: HepG2 72H Cytotoxicity CC50 [µM] (SD; n)
[8] = Cryptosporidium parvum, HCT-8 cells, read-out: EC50 against C. parvum
[9] = Cryptosporidium hominis, in HCT-8 cells, 48 h, value (SD; n)
[10] = HEK293T cells, 72 h, value (SD; n), read-out: HEK293T 72H Cytotoxicity CC50 [µM] (SD; n)
[11] = 72 h, value (SD; n), read-out: HepG2 72H Cytotoxicity CC50 [µM] (SD; n)
[12] = Cryptosporidium parvum, in HCT-8 cells, value (SD; n), read-out: C. parvum 48H Assay EC50 [µM] (SD; n)
[13] = 72 h, value (SD; n), read-out: HEK293T 72H Cytotoxicity CC50 [µM] (SD; n)
[14] = in HCT-8 cells, value (SD; n), read-out: C. parvum 48H Assay EC50 [µM] (SD; n)
[15] = in HCT-8 cells, 48 h, value (SD; n)
[16] = read-out: HCT-8 (Host cells) 48H Assay CC50 [µM] (SD; n), 48 h, value (SD; n)

Compound	CC50 at 72 h [1, 7] [µM]	EC50 (Cryptosporidium parvum; [8]) [µM]	EC50 [2, 9] [µM]	CC50 at 48 h ([3]; HCT-8 cells) [nM]	CC50 at 72 h [4, 10] [µM]	EC50 (Cryptosporidium parvum; [12]) [µM]	EC50 (Cryptosporidium parvum; [14]) [µM]	EC50 [2, 15] [µM]	other results
Cc1csc(NCC(O)c2c[nH]c3ccccc23)n1 (stereo not drawn) [GHCDL-2]	> 20	0.293	0.946	> 12500	> 20	–	–	–	–
CC[C@@]1([C@@H]2O[C@@H]([C@H]3O[C@@](O)(CO)[C@H](C)C[C@@H]3C)C[C@@H]2C)CC[C@H]([C@]2(C)CC[C@]3(C[C@H](O)[C@@H](C)[C@@H]([C@@H](C)[C@@H](OC)[C@H](C)C(=O)O)O3)O2)O1 [Monensin sodium]	–	0.007	–	–	–	0.00704	–	–	CC50 at 72 h [1, 11]: 1.65 µM; EC50 ([2]; Cryptosporidium hominis, HCT-8, 48 h): 0.0103 µM; CC50 at 48 h [3]: > 12500 nM; CC50 at 72 h [4, 13]: 0.516 µM
OC1CCCC2Nc3nonc3NC(c3ccc(Cl)cc3Cl)C12 (stereo not drawn) [GHCDL-1]	> 20	1.42	2.82	> 12500	> 20	–	–	–	–
Vorinostat [Vorinostat; SAHA]	–	–	–	–	–	–	–	–	CC50 (HepG2): 1.07 µM; CC50 (HCT-8 (Host cells)): 1.84 µM; CC50 (HEK293T): 4.27 µM
COc1cc(Nc2ncc(F)c(Nc3ccc4c(n3)NC(O)C(C)(C)O4)n2)cc(OC)c1OC (stereo not drawn) [R406]	0.596	–	0.647	> 12500	> 20	0.254	–	–	–
Cn1c2ccccc2c2c3c(c4c5ccccc5n(CCC#N)c4c21)CNC3O (stereo not drawn) [Gö 6976]	> 20	0.0025	0.00496	> 12500	0.124	0.00245	–	–	–
Puromycin	–	–	–	–	–	–	0.482	0.742	CC50 (HepG2; [11]): 1.13 µM; CC50 (HCT-8 (Host cells); [16]): 3.15 µM; CC50 (HEK293T; [13]): 0.519 µM
Momelotinib [Momelotinib; CYT-387]	–	–	–	–	–	–	0.37	0.389	CC50 (HepG2): 7.76 µM; CC50 (HCT-8 (Host cells)): 6.05 µM; CC50 (HEK293T): 19 µM
Nitazoxanide	–	–	–	–	–	–	2.84	2.82	CC50 (HepG2; [11]): > 48 µM; inhibition of parasite growth at all time points other than 10–13 h post infection (C. parvum [5]; 3-h treatment then washout, even at 3×EC99): < 60%; EC50 (Cryptosporidium parvum; HCT-8 cells, read-out: EC50 against C. parvum): 2.8 µM; EC99 against C. parvum (Cryptosporidium parvum): 8 µM; CC50 (HCT-8 (Host cells); [16]): > 10 µM; CC50 (HEK293T; [13]): > 48 µM
Oc1ccc(Cl)cc1NC(S)NC(O)c1cccc(Br)c1 (stereo not drawn) [NSC215721]	> 20	–	0.176	> 12500	> 20	0.278	–	–	–
O=c1[nH]c(=O)n([C@H]2C[C@H](O)[C@@H](CO)O2)cc1F [5-fluoro-2'-deoxyuridine; Floxuridine, 5-fluoro-2'-deoxyuridine]	–	0.017	0.0182	–	–	0.0172	–	–	CC50 at 72 h [1]: 0.214 µM; inhibition of C. parvum proliferation, every 3-h time point of the asexual life cycle (C. parvum [5]; treated at EC99 for 3 h, washout, read at 48 hpi): strong inhibition of growth across all time points; EC99 against C. parvum (Cryptosporidium parvum): 0.1 µM; EC50 (C. parvum [6]; read-out: Post-wash EC50): 9.4 nM; EC50 (C. parvum [6]; read-out: Pre-wash EC50): 53 nM; inhibition of C. parvum proliferation after compound removal by repeated washes (C. parvum [6]; host cell pre-treatment, dose-response): near equipotent inhibition; CC50 at 48 h [3]: 154 nM; CC50 at 72 h [4]: 0.0471 µM
Rocilinostat [Rocilinostat; ACY-1215]	–	–	–	–	–	–	0.356	0.451	CC50 (HepG2): 0.849 µM; CC50 (HCT-8 (Host cells)): 11.4 µM; CC50 (HEK293T): 12.1 µM
